Data from patent US8399422B2, “Compositions for transfection of oligonucleotides active for gene silencing and their biological and therapeutical applications” (Polyplus-Transfection, priority 2006, dated 2013).

What was measured:
[1] = test system: luciferase gene (pGL3) stably expressed by A549-GL3Luc cells; experiment: Luciferase gene (pGL3) silencing by GL3Luc siRNA transfection of A549-GL3Luc cells; type: cell-based, human; details: 48 h
Experimental: A549 (human lung carcinoma, ATCC No CCL-185) cells stably expressing the GL3 luciferase (Photinus pyralis luciferase under the control of SV40 elements) were obtained after stable transfection of pGL3Luc plasmid (Clontech). A549-GL3Luc cells were grown in RPMI-1640 and supplemented with 10% fetal bovine serum, 2 mM glutamax, 100 units/ml penicillin, 100 μg/ml streptomycin and 0.8 μg/ml G418 (Promega). All the cells were maintained at 37° C. in a 5% CO2 humidified atmosphere.
One day before transfection, 2.5×10^4 cells were seeded in 24-well tissue culture plate in 1 ml fresh complete medium containing 10% FBS. Before transfection, complexes of siRNA/transfection reagent were prepared. The desired amount of siRNAs was diluted in 100 μl of serum-free medium. The solution was mixed with a Vortex for 10 seconds. Then, 0.5 μl to 3 μl of amphiphilic molecules-based formulations were added to siRNA solution. The final mixture was mixed with a Vortex for 10 seconds, and left for 10 minutes at room temperature. Then, 100 μl of complexes solution were added per well and the plates were incubated at 37° C. […]
For all transfection protocols, the plates were further incubated at 37° C. for 48 h.
Luciferase gene expression was measured using a commercial kit (Promega, France). After removing the complete medium, three washings with 1 ml of PBS solution were made. Then, 100 μl of 1× lysis buffer were added per well, and the plate was incubated at room temperature for 30 minutes. The lysates were collected and centrifuged at 14,000 g for 5 minutes. The luciferase assay was assessed with 5 μl of lysate after injection of 100 μl of luciferin solution. The luminescence (RLU) was monitored with an integration over 10 seconds with a luminometer (LB960, Berthold, France). Results are expressed as light units integrated over 10 seconds (RLU), per mg of cell protein using the BCA assay (Pierce, France).
As a target model of endogenous reporter gene, A549 cells stably expressing the GL3 luciferase were used (Photinus pyralis luciferase under the control of SV40 elements). A well defined and conventional siRNA, chemically produced, and sequence-specific GL3Luc siRNA of SEQ ID No 1 and 2 composed of a short dsRNA of 19 nucleotides matching the GL3Luc mRNA and comprising 3′-overhangs of 2 deoxyribonucleotides (dT) was used for the transfection experiments. A formulation of cationic amphiphile MONI at 1 mM and combined with neutral phospholipid DOPE at 1 mM in ethanol was prepared. SiRNA diluted in serum-free medium (100 μl) was then complexed with 2 μl of the formulation of MONI/DOPE (1 mM/1 mM in ethanol). The resulting solution of transfection complexes was added on the cells growing in medium containing serum and cells were finally exposed to siRNA concentration range from 100 to 2000 pM (FIG. 1). The silencing efficiency was determined 48 h post-transfection by measuring the luciferase activity with a standard luminescence assay normalized by the protein content of cell lysates. The luciferase activity (expressed as RLU/mg of protein) was inhibited up to 90% when the transfection was performed with 2000 pM of siRNA.
Formulations composed of amphiphilic cationic molecule/DOPE (1 mM/2 mM in 10% ethanol and water) were used to complex siRNA and transfect A549-GL3Luc cells. Luciferase gene expression was measured after 48 h incubation period. Experiments were made in triplicates and the GL3 luciferase silencing efficiency was calculated from the luciferase level of transfected cells with a control GL2-Luc siRNA and normalized by the content of protein in the cell lysates.

[2] = test system: luciferase gene (pGL3) stably expressed by A549-GL3Luc cells; experiment: Reverse transfection in 96-well plate, luciferase silencing in A549-GL3Luc cells; type: cell-based, human; details: transfected with liposomal MONI/DOPE (½ mM), 48 h
Experimental: GL3Luc siRNA diluted in 50 μl of serum free medium were complexed (in 96-well tissue culture plate format, n=6) for 5 minutes with 1 μl of formulation composed of MONI/DOPE in water (1 mM/2 mM). Then, 10,000 A549-GL3Luc cells, stably expressing the luciferase gene, in 125 μl of medium containing serum were added per well. Luciferase gene expression was measured after 48 h incubation period. As unspecific siRNA control, siRNA matching the GL2 luciferase sequence were transfected in the same conditions. Luciferase gene expression was measured after 48 h incubation period and the luciferase activity was expressed as Relative Light Unit (RLU) normalized by the content of protein in the cell lysates (mg of protein). GL3 luciferase silencing efficiency (FIG. 3B) was calculated from the endogenous luciferase level of untransfected A549-GL3Luc cells normalized by the content of protein in the cell lysates.
Complexes of siRNA/transfection reagent were prepared first. […]
Luciferase gene expression was measured using a commercial kit (Promega, France). […] The luciferase assay was assessed with 5 μl of lysate after injection of 100 μl of luciferin solution. The luminescence (RLU) was monitored with an integration over 10 seconds with a luminometer (LB960, Berthold, France). Results are expressed as light units integrated over 10 seconds (RLU), per mg of cell protein using the BCA assay (Pierce, France). […]

## GL2Luc siRNA: siRNA duplex SEQ ID No 3 and 4 matching the GL2 luciferase sequence, unspecific control (chain 1 CGUACGCGGAAUACUUCGATT; chain 2 TTGCAUGCGCCUUAUGAAGCU; chemistry not fully specified; one strand is listed 3' to 5') [reference compound]
[1]; transfected with MONBI 1 mM/DOPE 2 mM in ethanol, same conditions
  luciferase level with unrelated GL2Luc siRNA: the luciferase level was not affected
[1]; transfected with MONI/DOPE 1 mM/1 mM in ethanol, same conditions (100 to 2000 pM)
  effect of unrelated GL2Luc siRNA on luciferase activity: absence of effect on the luciferase activity
[2]
  luciferase inhibition with unrelated GL2Luc siRNA, reverse transfection: absence of luciferase inhibition
